pKi: −log10 of the molar value. Where two headings read alike, the source gives them in different places.
Tests used:
[1] = Acute toxicity, single intraperitoneal injection, probit analysis (LD50); assay type: in vivo, Mäusen; details: mice, i.p.
Text: Ihre akute Toxizität wurde an Mäusen (einmalige intraperitoneale Injektion) nach der Methode der Probit-Analyse nach Zichtfield, Wilcoxon, t949 untersucht. In Tabelle 2 sind die Parameter der akuten Toxizität (LDso) angegeben, die eine mäßige Toxizität der erfindungsgemäßen Verbindungen belegen.

[2] = Side effects and CNS/behaviour: tremor (TD50), sedative and m-cholinomimetic effects; assay type: in vivo; details: for TD50 (Tremor) / TD50: toxic dose causing tremor in 50 % of the animals
Text: Von Interesse ist der Einfluß der erfindungsgemäßen Verbindungen auf das ZNS und das Verhalten der Tiere.

[3] = tested on: Nerven-Muskel-Präparat von Mäusen (n.peroneus-m.extensor digitorum longus); assay: Neuromuscular transmission in isolated nerve-muscle preparation (EPP, minEPP); details: for Stimulierung der Nerven-Muskelübertragung, in % der Amplitude: EPP: EPP = Endplattenpotential
Text: Der Einfluß der Stoffe auf die Nerven-Muskei-Übertragung wurde am isolierten Nerven-Muskel-Präparat von Mäusen (n.peroneus-m.extensor digitorum longus) (s. Bhattacharyya B. et al. "Neuromuscular blocking action of two hemicholinium-3 analogs" Europ. J. Pharmac. 146, 155-165 /1988/) untersucht, das von Lilly-Lösung perfundiert wurde, durch die man ein Gemisch von 02 und C02 leitete. […] Das Endplattenpotential (EPP) und das Endplattenminiaturpotential (minEPP) wurden mit Hilfe eines Magnetografen aufgezeichnet und danach mit dem Computer ausgewertet. Ermittelt wurden die Frequenz (f), die Amplitude (A) und die Dauer (t) der minEPP und der EPP (s. Tabelle 2).

[4] = tested on: durch Skopolamin hervorgerufene Amnesie; assay: Dark avoidance assay (passive avoidance), scopolamine-induced amnesia; assay type: in vivo, Mäusen; details: for Einfluß auf das Gedächtnis: Zahl der Tiere in %, bei denen die Skopolaminwirkung aufgehoben wurde: mice, compound s.c. 5 min before learning, Skopolamin i.p. 30 min before
Experimental: Die Mäuse wurden dabei in den hellen Abschnitt der Kammer gegeben, wonach die Latenzzeit für den Übertritt in die dunkle Kammer, in der die Tiere einem Stromschlag von 0,5 mA ausgesetzt waren, registriert wurde. Danach erhöhte sich die Latenzzeit für den Übertritt in den dunklen Abschnitt und verringerte sich die Aufenthaltsdauer. 30 Minuten vor dem Versuch wurden den Mäusen i.p. […] Gedächtnisstörungen hervorrufendes Skopolamin als Cholinblocker injiziert. Die erfindungsgemäßen Verbindungen wurden s.c. 5 Minuten vor dem Lernvorgang injiziert. Das Skopolamin verkürzt die Latenzzeit für den Übertritt in die dunkle Kammer, die erfindungsgemäßen Verbindungen stellen jedoch die Latenzzeitwerte wie bei der Kontrollgruppe wieder her oder bedingen ein geringfügiges Überschreiten dieser Werte (siehe Tabelle 2). Gleichzeitig wird die Aufenthaltsdauer der Tiere im dunklen Abschnitt der Kammer auf 36 bis 45 Hundertstel des Ausgangswerts verringert.

Orientierungsaktivität = assay: Influence on orientation activity; assay type: in vivo, Mäusen; details: mice
Text: Von Interesse ist der Einfluß der erfindungsgemäßen Verbindungen auf das ZNS und das Verhalten der Tiere. Alle Verbindungen zeigen eine Kombination von stimulierenden und sedativen Eigenschaften und bei höheren Dosen auch eine m-cholinomimetische Wirkung, wobei Tremor, Speichelfluß und Diarrhoe ausgelöst werden.

[5] = tested on: Calciumchlorid-Arrhythmie-Modells; assay: Calcium chloride arrhythmia model (250 mg/kg): ventricular fibrillation, survival; assay type: in vivo, Ratten; details: rats, calcium chloride 250 mg/kg
Text: (§1) Die antiarrhythmische Wirkung der erfindungsgemäßen Verbindungen wurde in zwei Versuchsserien untersucht, und zwar an isolierten Präparaten des rechten Vorhofs von Kaninchen und mit Hilfe des Calciumchlorid-Arrhythmie-Modells an Ratten. In den Versuchen an den isolierten Präparaten des rechten Vorhofs wurden mit Hilfe von Mikroelektroden die Dauer des AP sowie der Refraktärzeit (R) und die maximale Hemmung (e) und der Parameter (e/R) untersucht, durch den die Anfälligkeit des Myokards gegenüber der Entstehung von Arrhythmien gekennzeichnet wird. In den Versuchen an Ratten wurden diesen Calciumchlorid in einer Dosierung von 250 mg/kg injiziert. Registriert wurden das Vorliegen von Kammerflimmern und die Lebensdauer der Tiere. Sämtliche erfindungsgemäßen Verbindungen üben eine mäßige antiarrhythmische Wirkung aus. Sie steigern die Refraktärzeit des Muskels und des AP um 35 bis 145 % und verringern gleichzeitig die Anfälligkeit des Myokards, ausgedrückt durch den Parameter e/R um 10 bis 80 % (s. Tabelle 4). In bezug auf diese Wirkung waren die Salze der bicyclischen Basen wirksamer als Amyridin. Bezüglich des Vermögens, die Tiere vor Kammerflimmern und vor dem Tod nach Verabreichung von 250 mg/kg Calciumchlorid zu schützen, waren diese Verbindungen ebenfalls am stärksten wirksam. Bei Verwendung des Calciumchlorid-Arrhythmie-Modells waren viele erfindungsgemäßen Verbindungen stärker wirksam als das klassische Antiarrhythmikum Chinidin (s. M.D. Ma s kovskij, Lekarstvennye sredstva, Bd. 1, S. 401, Moskau, Medicina, 1984).

Wirkung von Hexenal = assay: Influence on the effect of Hexenal; assay type: in vivo, Mäusen; details: mice
Zahl der Krämpfe = assay: Writhing test (intraperitoneal acetic acid); assay type: in vivo, Mäusen; details: male mice
Text: Die analgetische Wirkung der erfindungsgemäßen Verbindungen wurde an männlichen Mäusen anhand des "Krampf"-Tests (Writhing-Tests) unter intraperitonealer Injizierung von Essigsäure und des Hot-plate-Tests untersucht. Im ersten Falle wurde die analgetische Wirkung der Verbindungen anhand der prozentualen Verringerung der Zahl der Krämpfe ermittelt. Beim zweiten Test wurde die Schwelle der Schmerzempfindlichkeit (Ablecken der Pfoten) bestimmt. Die stärkste analgetische Wirkung der erfindungsgemäßen Verbindungen zeigte sich beim "Krampf"-Test. Dabei übertrafen die Salze der bicyclischen Basen Amyridin, aber nicht alle erfindungsgemäßen Verbindungen waren schwächer als Morphin (s. Tabelle 4).

[6] = tested on: isolierten Präparaten des rechten Vorhofs von Kaninchen; assay: Antiarrhythmic effect on isolated right atrium preparations (microelectrodes: AP duration, refractory period R, e/R); details: isolated right atrium of rabbit; for Antiarrhythmische Wirkung: Verlängerung d. Refraktärzeit (R), in %: microelectrodes
Text: as §1

[7] = target: T1, Acetylcholinesterase menschlicher Erythrozyten (Homo sapiens, UniProt P22303); assay: Acetylcholinesterase inhibition, spectrophotometric; assay type: biochemical
T1 construct: Acetylcholin-esteraseinhi-bierung bei menschlichen Erythrozyten; from tissue; host or cells: human erythrocytes
T1 sequence (P22303 other isoform, or with tags, fused parts or gaps): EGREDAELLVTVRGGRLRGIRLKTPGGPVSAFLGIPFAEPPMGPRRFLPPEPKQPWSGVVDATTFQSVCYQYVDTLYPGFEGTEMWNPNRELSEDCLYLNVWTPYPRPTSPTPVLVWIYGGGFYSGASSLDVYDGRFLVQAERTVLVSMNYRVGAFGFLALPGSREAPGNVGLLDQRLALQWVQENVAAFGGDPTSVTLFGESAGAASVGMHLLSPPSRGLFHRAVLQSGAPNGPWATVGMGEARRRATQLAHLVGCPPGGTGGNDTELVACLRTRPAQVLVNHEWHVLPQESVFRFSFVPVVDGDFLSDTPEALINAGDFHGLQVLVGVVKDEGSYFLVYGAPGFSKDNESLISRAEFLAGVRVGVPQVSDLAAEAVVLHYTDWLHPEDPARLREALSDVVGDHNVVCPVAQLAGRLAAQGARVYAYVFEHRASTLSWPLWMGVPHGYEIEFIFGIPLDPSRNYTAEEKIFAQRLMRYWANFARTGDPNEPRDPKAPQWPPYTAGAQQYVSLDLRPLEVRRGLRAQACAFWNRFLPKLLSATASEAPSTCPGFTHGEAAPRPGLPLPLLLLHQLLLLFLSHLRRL
Text: Untersucht wurden die Wirkmechanismen der erfindungsgemäßen Verbindungen: • 1. Die Wirkung auf Acetylcholinesterase menschlicher Erythrozyten auf spektrofotometrischem Wege. • 2.

[8] = ED50 = dose blocking the effect of Skopolamin in 50 % of the animals (passive avoidance, mice)
[9] = Acetylcholinesteraseinhibierung bei menschlichen Erythrozyten IK, (Mol), human erythrocyte enzyme

| Compound | LD50 [1] [mg/kg] | Verhältnis TD50 zu ED50 [2, 8] | TD50 (Tremor) [2] | Stimulierung der Nerven-Muskelübertragung, in % der Amplitude: EPP [3] [%] | Stimulierung der Nerven-Muskelübertragung, in % der Amplitude: minEPP [3] [%] | Einfluß auf das Gedächtnis: Zahl der Tiere in %, bei denen die Skopolaminwirkung aufgehoben wurde [4] [%] | Änderung der Orientierungsaktivität, in % (Orientierungsaktivität) [%] | Antiarrhythmische Wirkung: Verlängerung d. Lebensdauer von Ratten an Hand des CaCl2-Arrhythmie-Modells, in % [5] [%] | Änderung der Dauer der Seitenlage, in %: Hexenal 60 mg/kg (Wirkung von Hexenal) | Analgetische Wirkung: Abnahme d. Zahl der "Krämpfe" bei Mäusen, in % (Zahl der Krämpfe) [%] | Antiarrhythmische Wirkung: Verlängerung d. Refraktärzeit (R), in % [6] [%] | pKi [7, 9] | LD50 ([1]; mouse, in vivo, ip, read-out: LD50) [mg/kg] | selectivity ratio ([2]; in vivo, ED50 = dose blocking the effect of Skopolamin in 50 % of the animals (passive avoidance, mice), read-out: Verhältnis TD50 zu ED50) | TD50 ([2]; in vivo) [mg/kg] | antiamnestische Wirkung ([4]; in words, compared with Amyridin) | pKi ([7]; read-out: Acetylcholinesteraseinhibierung bei menschlichen Erythrozyten IK, (Mol), human erythrocyte enzyme) | Antiarrhythmische Wirkung: Abnahme d. Parameters θ/R, in % ([6]; parameter marks susceptibility of the myocardium to arrhythmia) [%] |
| --- | --- | --- | --- | --- | --- | --- | --- | --- | --- | --- | --- | --- | --- | --- | --- | --- | --- | --- |
| CCc1c(C)nc2c(c1N)CCC2 [Verbindung 22] | 32 | 4 | 12 mg/kg | 25 | 60 | 70 | – | – | – | – | – | – | – | – | – | – | – | – |
| Cc1nc2c(c(N)c1C)CCC2 [Verbindung 4] | 15 | 11 | 5,5 mg/kg | 40 | 85 | 70 | 0 | 180 | 0% | 80 | 90 | 6.62 | – | – | – | – | – | – |
| Cc1nc2c(c(N)c1C)CCC2 [Verbindung 15] | 16 | 6,8 | 7 mg/kg | 40 | 75 | 72 | -15 | 110 | +30% | 65 | 90 | 6.19 | – | – | – | – | – | – |
| Cc1nc2c(c(N)c1C)CCC2 [Verbindung 18] | 16 | 6 | 9 mg/kg | 45 | 80 | 70 | – | – | – | – | – | 6.84 | – | – | – | – | – | – |
| Cc1nc2c(c(N)c1-c1ccccc1)CCC2 [Verbindung 32] | – | – | – | 20 | 45 | 50 | – | – | – | – | – | – | 18 | 2.6 | 10 | ausgenommen | 4.30 | – |
| Cc1nc2c(c(N)c1C)CCC2 [Verbindung 2] | 15 | 12,5 | 5 mg/kg | 45 | 85 | 75 | -15 | 160 | +35% | 70 | 130 | 7.32 | – | – | – | – | – | – |
| Cc1nc2c(c(N)c1C)CCC2 [Verbindung 6] | 35 | 10 | – | 35 | 80 | 60 | -20 | 130 | +20% | 70 | 100 | 6.40 | – | – | 10 | – | – | – |
| 4-Amino-2,3-dimethyl-6,7-dihydro-5H-1-pyrindinsalicylat [Verbindung 8] | 17 | 6 | 8 mg/kg | 40 | 75 | 70 | 0 | 190 | 0% | 70 | 100 | – | – | – | – | – | – | 58 |
| Cc1nc2c(c(N)c1C)CCC2 [Verbindung 17] | 24 | 7,1 | 10 mg/kg | 43 | 75 | 72 | – | – | – | – | – | 6.41 | – | – | – | – | – | – |
